Legend:
[1] = system: cisplatin-resistant murine L1210 leukemia cell (L1210/DDP); assay: Antitumor effect on cisplatin-resistant murine L1210 leukemia cell (L1210/DDP), increase in life-span; type: in vivo, murine; male CDF1 mice; conditions: for dose corresponding to ILSmax: dose(s) shown in parenthesis; for ILSmax (maximum ILS value within the set doses): male CDF1 mice, observed for 30 days; for ILS50 (a dose which shows 50% of the ILS value by 5 administrations): ND: not detectable; for TI (therapeutic index LD50/ILS50): LD50/ILS50, ND: not detectable
Source text: (§1) Murine L1210 leukemia cells (1×10^5 cells) were inoculated peritoneally into six-week-old male CDF1 mice.
(§2) T: mean survival days of drug-treated group
(§3) C: mean survival days of untreated group
(§4) In the table, ILSmax means the maximum ILS value (%) within the set doses, and its corresponding dose (mg/kg) is shown in parenthesis.
Antitumor effect on cisplatin-resistant murine L1210 leukemia cell:
The above test of the antitumor effect on murine leukemia cells was repeated except that cisplatin-resistant murine L1210 leukemia cell (L1210/DDP) was used instead of murine L1210 leukemia cell, with the results shown in Table 2.

[2] = system: murine L1210 leukemia cells; assay: Antitumor effect on murine L1210 leukemia cell (intraperitoneally inoculated mice, increase in life-span); type: in vivo, murine; male CDF1 mice; conditions: for ILS50 (a dose which shows 50% of the ILS value by 5 administrations): from linear regression line; for dose corresponding to ILSmax: dose shown in parenthesis; for ILSmax (maximum ILS value within the set doses): male CDF1 mice, observed for 30 days
Source text: as §1, §2, §3, §4

male CDF1 mice = assay: 50% lethal dose by single intraperitoneal administration; type: in vivo
Source text: as §4

Row | Molecule | dose corresponding to ILSmax [1] | ILSmax (maximum ILS value within the set doses) [1] [%] | ILS50 (a dose which shows 50% of the ILS value by 5 administrations) [2] [mg/kg] | dose corresponding to ILSmax [2] [mg/kg] | ILSmax (maximum ILS value within the set doses) [2] [%] | ILS50 (a dose which shows 50% of the ILS value by 5 administrations) [1] [mg/kg] | TI (therapeutic index LD50/ILS50) [1] | LD50 (male CDF1 mice) [mg/kg] | TI (therapeutic index LD50/ILS50) [2]
1 | N.N.[Cl][Pt][Cl] [Cisplatin, cisplatin, reference compound] | 4 mg/kg | 1.0 | 1.3 | 4 | 97.5 | – | – | – | –
2 | O=C([O][Pt]1([Cl])[NH]C2CCCCC2[NH]1)C1CCCC1 (stereo not drawn) [Compound 16, chloro(cyclopentanecarboxylato)(trans-1-1,2-diaminocyclohexane)platinum(II)] | 4,8 mg/kg | > 194.1 | 5.6 | 32 | > 221.3 | < 4.0 | > 44.2 | 176.8 | 31.6
3 | chloro (cyclopropanecarboxylato) (trans-1-1,2-diaminocyclohexane)platinum(II) [Compound 15] | 1,2 mg/kg | > 194.1 | 1.2 | 8 | > 166.3 | < 1.0 | > 31.3 | 31.3 | 26.1
4 | chloro(1-lactato)(trans-1-1,2-diaminocyclohexane)platinum(II) [Compound 17] | 1,2 mg/kg | > 194.1 | < 1.0 | 8 | > 190.0 | < 1.0 | > 44.3 | 44.3 | > 44.3
5 | chloro(propionato)(trans-1-1,2-diaminocyclohexane)platinum(II) [Compound 14] | – | > 194.1 | 1.0 | 8 | 146.3 | < 1.0 | > 44.3 | 44.3 | 44.3

From patent US5585511A, “Platinum complex and malignant tumor treating drug containing the same” (SS Pharmaceutical Co., Ltd., priority 1994, dated 1996)
